In brackets after ≈: the same amount, converted by molar mass.
Experiments:
Experiment in all cases: in vitro antibacterial evaluation, MIC by broth dilution
Assay type in all cases: cell-based
[1] = test system: Streptococcus sp.; details: broth dilution, 18 hours at 35° C.; for MIC Streptococcus pneumoniae (ATCC 6301): strain ATCC 6301; for MIC Streptococcus pneumoniae (GC 1894): strain GC 1894; for MIC Streptococcus pyogenes (GC 4563): strain GC 4563; for MIC Streptococcus agalactiae (GC 4564): strain GC 4564; for MIC Streptococcus pneumoniae (GC 4565): strain GC 4565
How it was run: (§1)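 MIC, the lowest antibiotic concentration preventing growth, was read across 64-0.06 μg/mL with 5×10^5 CFU/mL inoculum. Method followed NCCLS M7-A2 broth dilution using Mueller-Hinton II; Gram-positive strains covered recent methicillin-, penicillin- and/or vancomycin-resistant clinical isolates.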

[2] = test system: Escherichia coli
How it was run: as §1

[3] = test system: Enterococcus sp.; details: broth dilution, 18 hours at 35° C.; for MIC Enterococcus faecalis (ATCC 29212): strain ATCC 29212; for MIC Enterococcus faecalis (GC 2242): strain GC 2242; for MIC Enterococcus faecium (GC 2243): strain GC 2243; for MIC Enterococcus faecalis (GC 2691): strain GC 2691; for MIC Enterococcus faecalis (GC 3059): strain GC 3059; for MIC Enterococcus faecalis (GC 4552): strain GC 4552; for MIC Enterococcus faecalis (GC 4553): strain GC 4553; for MIC Enterococcus faecalis (GC 4554): strain GC 4554; for MIC Enterococcus faecium (GC 4556): strain GC 4556; for MIC Enterococcus faecium (GC 4557): strain GC 4557; for MIC Enterococcus avium (GC 4558): strain GC 4558; for MIC Enterococcus faecalis (GC 6189): strain GC 6189
How it was run: as §1

[4] = test system: Staphylococcus sp.; details: broth dilution, 18 hours at 35° C.; for MIC Staphylococcus aureus (GC 1131): strain GC 1131
How it was run: as §1

CC(c1ccccc1)C1NC(=O)CNC(=O)C(CO)NC(=O)C(C(O)C2CNC(=N)N2C2OC(CO)C(O)C(O)C2O)NC(=O)C(C(O)C2CNC(=N)N2)NC(=O)C(Cc2ccc(OC3OC(CO)C(OC4OC5COC(c6ccc(-c7cccs7)cc6)OC5C(O)C4O)C(O)C3O)cc2)NC1=O (stereo not drawn) [Example 163]
MIC Streptococcus pneumoniae (ATCC 6301) ([1]; inoculum 5×10^5 CFU/mL): <0.5 µg/mL | MIC Streptococcus pneumoniae (GC 1894) ([1]; inoculum 5×10^5 CFU/mL): <0.5 µg/mL | MIC Streptococcus pyogenes (GC 4563) ([1]; inoculum 5×10^5 CFU/mL): <0.5 µg/mL | MIC Streptococcus agalactiae (GC 4564) ([1]; inoculum 5×10^5 CFU/mL): <0.5 µg/mL | MIC Streptococcus pneumoniae (GC 4565) ([1]; inoculum 5×10^5 CFU/mL): 1 µg/mL (≈ 0.682 µM) | MIC Streptococcus pneumoniae (ATCC 6301) [1]: <0.5 µg/mL | MIC Streptococcus pneumoniae (GC 1894) [1]: <0.5 µg/mL | MIC Streptococcus pyogenes (GC 4563) [1]: <0.5 µg/mL | MIC Streptococcus agalactiae (GC 4564) [1]: <0.5 µg/mL | MIC Streptococcus pneumoniae (GC 4565) [1]: 1 µg/mL (≈ 0.682 µM) | MIC Escherichia coli (ATCC 25922) ([2]; strain ATCC 25922, 18 hours at 35° C.): >64 µg/mL | MIC Escherichia coli (GC 4559) ([2]; strain GC 4559, 18 hours at 35° C.): 64 µg/mL (≈ 43.7 µM) | MIC Escherichia coli (GC 4560) ([2]; strain GC 4560, 18 hours at 35° C.): 8 µg/mL (≈ 5.46 µM) | MIC Enterococcus faecalis (ATCC 29212) ([3]; inoculum 5×10^5 CFU/mL): 8 µg/mL (≈ 5.46 µM) | MIC Enterococcus faecalis (GC 2242) ([3]; inoculum 5×10^5 CFU/mL): 4 µg/mL (≈ 2.73 µM) | MIC Enterococcus faecium (GC 2243) ([3]; inoculum 5×10^5 CFU/mL): 8 µg/mL (≈ 5.46 µM) | MIC Enterococcus faecalis (GC 2691) ([3]; inoculum 5×10^5 CFU/mL): 4 µg/mL (≈ 2.73 µM) | MIC Enterococcus faecalis (GC 3059) ([3]; inoculum 5×10^5 CFU/mL): 8 µg/mL (≈ 5.46 µM) | MIC Enterococcus faecalis (GC 4552) ([3]; inoculum 5×10^5 CFU/mL): 8 µg/mL (≈ 5.46 µM) | MIC Enterococcus faecalis (GC 4553) ([3]; inoculum 5×10^5 CFU/mL): 4 µg/mL (≈ 2.73 µM) | MIC Enterococcus faecalis (GC 4554) ([3]; inoculum 5×10^5 CFU/mL): 8 µg/mL (≈ 5.46 µM) | MIC Enterococcus faecium (GC 4556) ([3]; inoculum 5×10^5 CFU/mL): 4 µg/mL (≈ 2.73 µM) | MIC Enterococcus faecium (GC 4557) ([3]; inoculum 5×10^5 CFU/mL): 8 µg/mL (≈ 5.46 µM) | MIC Enterococcus avium (GC 4558) ([3]; inoculum 5×10^5 CFU/mL): 4 µg/mL (≈ 2.73 µM) | MIC Enterococcus faecalis (GC 6189) ([3]; inoculum 5×10^5 CFU/mL): 4 µg/mL (≈ 2.73 µM) | MIC Enterococcus faecalis (ATCC 29212) [3]: 8 µg/mL (≈ 5.46 µM) | MIC Enterococcus faecalis (GC 2242) [3]: 4 µg/mL (≈ 2.73 µM) | MIC Enterococcus faecium (GC 2243) [3]: 8 µg/mL (≈ 5.46 µM) | MIC Enterococcus faecalis (GC 2691) [3]: 4 µg/mL (≈ 2.73 µM) | MIC Enterococcus faecalis (GC 3059) [3]: 8 µg/mL (≈ 5.46 µM) | MIC Enterococcus faecalis (GC 4552) [3]: 8 µg/mL (≈ 5.46 µM) | MIC Enterococcus faecalis (GC 4553) [3]: 4 µg/mL (≈ 2.73 µM) | MIC Enterococcus faecalis (GC 4554) [3]: 8 µg/mL (≈ 5.46 µM) | MIC Enterococcus faecium (GC 4556) [3]: 4 µg/mL (≈ 2.73 µM) | MIC Enterococcus faecium (GC 4557) [3]: 8 µg/mL (≈ 5.46 µM) | MIC Enterococcus avium (GC 4558) [3]: 4 µg/mL (≈ 2.73 µM) | MIC Enterococcus faecalis (GC 6189) [3]: 4 µg/mL (≈ 2.73 µM) | MIC Staphylococcus aureus (GC 1131) ([4]; inoculum 5×10^5 CFU/mL): 4 µg/mL (≈ 2.73 µM) | MIC Staphylococcus aureus (ATCC 29213) ([4]; strain ATCC 29213): 4 µg/mL (≈ 2.73 µM) | MIC Staphylococcus aureus (GC 1131) [4]: 4 µg/mL (≈ 2.73 µM) | MIC Staphylococcus aureus (GC 3051) ([4]; strain GC 3051): 8 µg/mL (≈ 5.46 µM) | MIC Staphylococcus aureus (GC 3053) ([4]; strain GC 3053): 8 µg/mL (≈ 5.46 µM) | MIC Staphylococcus aureus (GC 4541) ([4]; strain GC 4541): 4 µg/mL (≈ 2.73 µM) | MIC Staphylococcus aureus (GC 4542) ([4]; strain GC 4542): 4 µg/mL (≈ 2.73 µM) | MIC Staphylococcus aureus-SMITH (GC 4543) ([4]; strain GC 4543): 1 µg/mL (≈ 0.682 µM) | MIC Staphylococcus aureus (GC 4544) ([4]; strain GC 4544): 4 µg/mL (≈ 2.73 µM) | MIC Staphylococcus aureus (GC 4545) ([4]; strain GC 4545): 4 µg/mL (≈ 2.73 µM) | MIC Staphylococcus haemolyticus (GC 4546) ([4]; strain GC 4546): 4 µg/mL (≈ 2.73 µM) | MIC Coagulase Negative Staphylococcus (GC 4547) ([4]; strain GC 4547): 8 µg/mL (≈ 5.46 µM) | MIC Coagulase Negative Staphylococcus (GC 4548) ([4]; strain GC 4548): 1 µg/mL (≈ 0.682 µM) | MIC Coagulase Negative Staphylococcus (GC 4549) ([4]; strain GC 4549): 4 µg/mL (≈ 2.73 µM) | MIC Coagulase Negative Staphylococcus (GC 4551) ([4]; strain GC 4551): 2 µg/mL (≈ 1.36 µM) | MIC Coagulase Negative Staphylococcus (GC 6257) ([4]; strain GC 6257): 2 µg/mL (≈ 1.36 µM) | MIC Staphylococcus aureus-SMITH (GC 4543) ([4]; strain SMITH GC 4543): 1 µg/mL (≈ 0.682 µM)

Reference: US6914045B2, “Glycopeptide antibiotics” (Wyeth Holdings Corporation, priority 2001, dated 2005)
